These results are taken from US20240083910A1, “AMIDO-SUBSTITUTED PYRIDYL COMPOUNDS AND METHODS OF USE THEREOF FOR THE TREATMENT OF HERPESVIRUSES” (Merck Sharp & Dohme LLC, priority 2020, published 2024).

Experiment [1] has as its target T1, Human cytomegalovirus DNA polymerase (Human cytomegalovirus, UniProt P08546).
T1 construct: made in house; host or cells: SF21 insect cells (baculovirus vector)
In words: CMV polymerase assay (AlphaLISA). Type of experiment: biochemical. The note with it: HCMV polymerase 0.2 nM; 30 min pre-incubation; 60 min at 37° C.; read-out: CMV (IC50). As to the method:
Human cytomegalovirus and varicella zoster virus DNA polymerases were expressed via baculovirus vector in SF21 cells and purified. Heterodimeric nucleic acid substrate used in the herpesvirus polymerase reactions was generated by annealing a 59-mer template to a 17-mer digoxigenin-labeled primer. Polymerase (HCMV final concentration of 0.2 nM; VZV final concentration of 0.4 nM) was combined with an inhibitor compound or DMSO in assay buffer (10 mM HEPES, pH 7.5, 25 mM KCl, 25 mM NaCl, 5 mM MgCl2, 5% glycerol, 0.67 mg/ml bovine serum albumin, and 1 mM tris(2-carboxyethyl)phosphine), and this mixture was pre-incubated for 30 minutes at room temperature in 384-well microtiter plates. The polymerization reaction was initiated by the addition of template/primer substrate (final concentration: 1.6 nM), and dNTPs (final concentration: 24 nM dCTP, 24 nMdGTP, 16 nM dATP, 16 nM dTTP, and 0.8 nM biotin-dUTP). After 60 min incubation at 37° C., reactions were terminated with quench buffer (25 mM HEPES pH 7.5, 100 mM NaCl, 0.25% Tween-20, 12 mM EDTA, and 1 mg/ml bovine serum albumin). Incorporation of biotinylated UTP was detected with 2.5-5 ug/ml anti-DIG AlphaLISA acceptor beads and 5-10 ug/ml streptavidin AlphaLISA donor beads (PerkinElmer). Compound effects were normalized to the window defined by the controls (DMSO only and pre-quenched wells) and were fit using a 4-parameter algorithm to report an IC50.
(In Alpha technology, singlet oxygen from a donor bead excites a nearby acceptor bead.)

Another experiment has as its system HCMV Strain AD169. The experiment can be described thus: Viral qPCR assay, HCMV. In kind it is cell-based, Human cytomegalovirus. Conditions: MRC-5 cells, 0.05-0.1 pfu/cell, growth media or 50% fetal bovine serum, viral genome copies by qPCR, read-out: CMV Cell (EC50). On the procedure:
(§1) MRC5 cells, Vero cells, and MeWo cells were obtained from ATCC, and were maintained at 37° C./5% CO2/90% relative humidity in Minimal Essential Medium with 10% fetal bovine serum, […] L-glutamine, 100 units/ml penicillin and 100 ug/ml streptomycin. Assay plates were prepared by dispensing compounds dissolved in DMSO into wells of 384 well collagen-coated plates using an ECHO acoustic dispenser. Each compound was tested in a 10-point, serial 3-fold dilution. Controls included uninfected cells and infected cells treated only with DMSO. Assays were initiated by mixing selected cells, in suspension, with virus, and dispensing 50 μl/well infected cells to pre-plated compounds. Plates were incubated at 37° C./5% CO2/90% relative humidity for ˜72 hrs to permit genomic replication, and infected cells were lysed by the addition of an equal volume of lysis buffer (10 mM Tris-HCl, pH8, 50 mM KCl, 2 mM MgCl2, 0.45% NP-40, 0.45% Tween-20, and 100 μg/ml proteinase K). An aliquot of the lysate was transferred to a 384-well PCR plate and incubated at 56° C. for 1 hour and then at 95° C. for 10 min. Levels of a viral gene and of the cellular control, PPIA (Thermo Fisher Assay ID=Hs04194521_s1), were measured in separate 10 ul qPCR assays using TaqMan® Gene Expression Master Mix (Applied Biosystems), and an 7900HT Fast Real-Time PCR System with 384-Well Block Module. 7-point, serial 10-fold dilutions of a plasmid standard were run on each plate to generate a standard curve, and genome copies numbers were calculated by plotting experimental Ct onto linear regression of the standard curve. Viral genome copy numbers were normalized by cellular control copy number, and compound effects were normalized to the window defined by the controls. Calculated % effects were fit using a 4-parameter algorithm, and EC50 was reported.
(§2) MRC5 cells, Vero cells, and MeWo cells were obtained from ATCC, and were maintained at 37° C./5% CO2/90% relative humidity in Minimal Essential Medium with 10% fetal bovine serum, […] L-glutamine, 100 units/ml penicillin and 100 ug/ml streptomycin. Assay plates were prepared by dispensing compounds dissolved in DMSO into wells of 384 well collagen-coated plates using an ECHO acoustic dispenser. Each compound was tested in a 10-point, serial 3-fold dilution. Controls included uninfected cells and infected cells treated only with DMSO. Assays were initiated by mixing selected cells, in suspension, with virus, and dispensing 50 μl/well infected cells to pre-plated compounds. Plates were incubated at 37° C./5% CO2/90% relative humidity for ˜72 hrs to permit genomic replication, and infected cells were lysed by the addition of an equal volume of lysis buffer (10 mM Tris-HCl, pH 8, 50 mM KCl, 2 mM MgC12, 0.45% NP-40, 0.45% Tween-20, and 100 μg/ml proteinase K). An aliquot of the lysate was transferred to a 384-well PCR plate and incubated at 56° C. for 1 hour and then at 95° C. for 10 min. Levels of a viral gene were measured in 10 ul qPCR assays using TaqMan® Gene Expression Master Mix (Applied Biosystems), and an 7900HT Fast Real-Time PCR System with 384-Well Block Module. 7-point, serial 10-fold dilutions of a plasmid standard were run on each plate to generate a standard curve, and genome copies numbers were calculated by plotting experimental Ct onto linear regression of the standard curve. Compound effects on viral genome copy number were normalized to the window defined by the controls. Calculated % effects were fit using a 4-parameter algorithm, and ECso was reported.
HCMV: Strain AD169 Street was assayed in MRC-5 cells and was used at 0.05-0.1 pfu/cell. The assays were performed in either growth media or in the same media with 50% fetal bovine serum. Primer-probe set was Thermo Fisher Assay ID=AIFATFK.
(Quantitative PCR measures a nucleic acid by following its amplification.)

The subject of the next experiment is VZV. The experiment can be described thus: Viral qPCR assay, VZV. In kind it is cell-based, varicella zoster virus. The note with it: MeWo or MRC5 cells, 0.04-0.1 pfu/cell, growth medium, viral genome copies by qPCR. As to the method:
as §1, §2
VZV: Strain Street was maintained as an infected cell stock in MRC-5 cells. It was assayed in MeWo or MRC5 cells and was used at 0.04-0.1 pfu/cell. The assays were performed in growth medium. Primer-probe set was Thermo Fisher Assay ID=AIPAEXQ.

In the next experiment the test system is HSV-1 Strain F. The experiment can be described thus: Viral qPCR assay, HSV-1. In kind it is cell-based, Herpes Simplex Virus type 1. Conditions: Vero or MRC5 cells, 0.0005-0.004 pfu/cell, growth medium, viral genome copies by qPCR, read-out: HSV1 Cell (EC50). On the procedure:
as §1, §2
HSV-1: Strain F […] was assayed in Vero or MRC5 cells and was used at 0.0005-0.004 pfu/cell in growth medium. Primer-probe set was Thermo Fisher Assay ID=AIBJZIB

The mark [2] stands for this setting: Human betaherpesvirus 5, AD169, MRC5, 72 h.

Broadly, the IC50 is the concentration at which inhibition is half-maximal. The term EC50 denotes the concentration giving half of the maximal effect.

Like-named read-outs stand apart in the source and are kept apart here.

T1 sequence (P08546 whole entry): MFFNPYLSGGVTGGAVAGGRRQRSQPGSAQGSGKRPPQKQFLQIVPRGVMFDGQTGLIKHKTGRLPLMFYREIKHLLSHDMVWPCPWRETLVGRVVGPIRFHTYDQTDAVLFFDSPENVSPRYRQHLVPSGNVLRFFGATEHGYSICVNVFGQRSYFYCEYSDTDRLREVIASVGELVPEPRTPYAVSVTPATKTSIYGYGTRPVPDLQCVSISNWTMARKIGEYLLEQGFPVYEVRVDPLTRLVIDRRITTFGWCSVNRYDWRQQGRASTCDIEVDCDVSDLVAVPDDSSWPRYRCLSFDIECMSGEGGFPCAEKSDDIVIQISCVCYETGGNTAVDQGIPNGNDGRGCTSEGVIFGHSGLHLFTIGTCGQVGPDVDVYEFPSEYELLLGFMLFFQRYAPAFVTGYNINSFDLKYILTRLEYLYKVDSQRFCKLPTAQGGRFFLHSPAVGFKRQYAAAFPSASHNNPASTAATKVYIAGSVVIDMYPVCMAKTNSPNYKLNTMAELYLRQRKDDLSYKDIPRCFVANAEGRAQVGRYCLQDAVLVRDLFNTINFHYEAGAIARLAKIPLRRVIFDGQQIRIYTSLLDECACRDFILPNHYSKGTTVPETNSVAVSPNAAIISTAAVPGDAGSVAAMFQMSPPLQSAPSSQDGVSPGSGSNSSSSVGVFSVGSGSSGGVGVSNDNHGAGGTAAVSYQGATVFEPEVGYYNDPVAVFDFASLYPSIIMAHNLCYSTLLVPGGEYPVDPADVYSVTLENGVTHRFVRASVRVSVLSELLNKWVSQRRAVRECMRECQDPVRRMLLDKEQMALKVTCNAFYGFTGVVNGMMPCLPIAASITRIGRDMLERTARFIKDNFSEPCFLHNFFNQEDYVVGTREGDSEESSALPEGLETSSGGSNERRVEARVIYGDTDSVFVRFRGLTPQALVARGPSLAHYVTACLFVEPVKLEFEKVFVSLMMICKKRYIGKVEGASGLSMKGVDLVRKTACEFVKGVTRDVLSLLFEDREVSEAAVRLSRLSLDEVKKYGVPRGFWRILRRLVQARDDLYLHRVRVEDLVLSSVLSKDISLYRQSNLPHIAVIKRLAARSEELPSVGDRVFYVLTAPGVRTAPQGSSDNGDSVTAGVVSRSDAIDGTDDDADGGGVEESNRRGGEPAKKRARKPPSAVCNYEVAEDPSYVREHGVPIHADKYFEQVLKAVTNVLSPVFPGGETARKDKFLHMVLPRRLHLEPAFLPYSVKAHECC

For the compound `COc1ccc(-c2nc(OC)c(C(=O)NCc3ccc(Cl)cc3)cc2O[C@H]2CCN3C(=O)OC[C@@H]3C2)cn1` [Compound 43], in experiment [1], the IC50 is 22.3 nM. The EC50 in the experiment on HCMV Strain AD169 (setting [2]) is 422 nM; with VZV (Human alphaherpesvirus 3, 72 h), 298 nM; with HSV-1 Strain F (Human alphaherpesvirus 1, 72 h) it was 169 nM.
For `COc1nc(-c2cncc(CO)c2)c(O[C@H]2CCN3C(=O)OC[C@@H]3C2)cc1C(=O)NCc1ccc(Cl)cc1` [Compound 44], the IC50 in experiment [1] came to 20 nM. The EC50 was 326 nM with HCMV Strain AD169 (setting [2]); 585 nM in the experiment on VZV (Human alphaherpesvirus 3, 72 h); 263 nM in the experiment with HSV-1 Strain F (Human alphaherpesvirus 1, 72 h).
The like results for `COc1nc(-c2cnc(N)nc2)c(O[C@H]2CCN3C(=O)OC[C@@H]3C2)cc1C(=O)NCc1ccc(Cl)cc1` [Compound 45] were, in that order, 2.3 nM, 111 nM, 141 nM and 50 nM.
The matching figures for `COc1nc(-c2ccc(=O)[nH]c2)c(O[C@H]2CCN3C(=O)OC[C@@H]3C2)cc1C(=O)NCc1ccc(Cl)cc1` [Compound 47]: 4.87 nM, 1300 nM, 2320 nM and 654 nM.
Regarding `COc1nc(-c2cnn(C(F)F)c2)c(O[C@H]2CCN3C(=O)OC[C@@H]3C2)cc1C(=O)NCc1cc(F)c(Cl)c(F)c1` [Compound 57], the IC50 in experiment [1] came to 6.13 nM. In addition, the EC50 with HCMV Strain AD169 (setting [2]) stood at 538 nM; in the experiment with VZV (Human alphaherpesvirus 3, 72 h), 364 nM; in the experiment with HSV-1 Strain F (Human alphaherpesvirus 1, 72 h), 207 nM.
With `COc1nc(-c2cnn(C(F)F)c2)c(O[C@H]2CCN3C(=O)OC[C@@H]3C2)cc1C(=O)NCc1ccc(C#N)cc1F` [Compound 59], the IC50 in experiment [1] came to 3.25 nM. The EC50 was found to be 324 nM in the experiment on HCMV Strain AD169 (setting [2]); 160 nM in the experiment on VZV (Human alphaherpesvirus 3, 72 h); 80.6 nM in the experiment with HSV-1 Strain F (Human alphaherpesvirus 1, 72 h).
The like results for `COc1nc(-c2cnc(C3CC3)s2)c(O[C@H]2CCN3C(=O)OC[C@@H]3C2)cc1C(=O)NCc1ccc(Cl)cc1` [Compound 63] were, in that order, 8.74 nM, 164 nM, 167 nM and 148 nM.
On to `COc1nc(-c2ncco2)c(O[C@H]2CCN3C(=O)OC[C@@H]3C2)cc1C(=O)N[C@@H](C)c1ccc(Cl)cc1` [Compound 64], for which the IC50 in experiment [1] was found to be 69.3 nM. Also, the EC50 with HCMV Strain AD169 (setting [2]) was found to be 911 nM; with VZV (Human alphaherpesvirus 3, 72 h) it was 1560 nM; in the experiment with HSV-1 Strain F (Human alphaherpesvirus 1, 72 h), 597 nM.
For the compound `COc1nc(N2CC3(CC(O)C3)C2)c(O[C@H]2CCN3C(=O)OC[C@@H]3C2)cc1C(=O)NCc1ccc(Cl)cc1` [Compound 66], the half-inhibitory concentration (IC50) in experiment [1] stood at 5.23 nM. The EC50 with HCMV Strain AD169 (setting [2]) is 146 nM; in the experiment with VZV (Human alphaherpesvirus 3, 72 h) it was 648 nM; in the experiment on HSV-1 Strain F (Human alphaherpesvirus 1, 72 h) it was 262 nM.
Consider `COc1nc(N2CCC(C(C)(C)O)C2)c(O[C@H]2CCN3C(=O)OC[C@@H]3C2)cc1C(=O)NCc1ccc(Cl)cc1` (stereo partly drawn) [Compound 67], for which, in experiment [1], the IC50 stood at 22.9 nM. Also, the EC50 in the experiment on HCMV Strain AD169 (setting [2]) came out at 368 nM; with VZV (~72 hrs), 2270 nM; in the experiment on HSV-1 Strain F (Human alphaherpesvirus 1, 72 h), 568 nM.
Turning to `COc1nc(N2CCC(C(C)(C)O)C2)c(O[C@H]2CCN3C(=O)OC[C@@H]3C2)cc1C(=O)NCc1ccc(Cl)cc1` (stereo partly drawn) [Compound 68], the IC50 in experiment [1] was 28.7 nM. Further, the EC50 came out at 265 nM with HCMV Strain AD169 (~72 hrs), 661 nM in the experiment on VZV (~72 hrs) and 654 nM with HSV-1 Strain F (~72 hrs).
Regarding `COc1nc(CC(C)(C)O)c(O[C@H]2CCN3C(=O)OC[C@@H]3C2)cc1C(=O)NCc1ccc(Cl)cc1` [Compound 73], in experiment [1], the IC50 came out at 20.9 nM. For the same compound, the EC50 with HCMV Strain AD169 (setting [2]) stood at 339 nM; with VZV (Human alphaherpesvirus 3, 72 h), 828 nM; with HSV-1 Strain F (Human alphaherpesvirus 1, 72 h) it was 575 nM.
The like results for `COc1nc(C2CC3(CC(O)C3)C2)c(O[C@H]2CCN3C(=O)OC[C@@H]3C2)cc1C(=O)NCc1ccc(Cl)cc1` (stereo partly drawn) [Compound 76] were, in that order, 32.1 nM, 519 nM, 778 nM and 293 nM.
The matching figures for `COc1nc(CC(C)(C)N)c(O[C@H]2CCN3C(=O)OC[C@@H]3C2)cc1C(=O)NCc1ccc(Cl)cc1` [Compound 81]: 88.6 nM, 558 nM, 3650 nM and 2880 nM.
The matching figures for `Cc1nsc(-c2nc(OCC(C)(C)O)c(C(=O)NCc3ccc(Cl)cc3)cc2O[C@H]2CCN3C(=O)OC[C@@H]3C2)n1` [Compound 87]: 5.13 nM, 108 nM, 207 nM and 140 nM.
On to `CN(C)CCOc1nc(-c2cnn(C(F)F)c2)c(O[C@H]2CCN3C(=O)OC[C@@H]3C2)cc1C(=O)NCc1ccc(Cl)cc1` [Compound 88], for which the IC50 in experiment [1] is 3.16 nM. In addition, the EC50 in the experiment with HCMV Strain AD169 (setting [2]) amounted to 32.5 nM; with VZV (Human alphaherpesvirus 3, 72 h), 317 nM; in the experiment with HSV-1 Strain F (Human alphaherpesvirus 1, 72 h), 257 nM.
For `O=C(NCc1ccc(Cl)cc1)c1cc(O[C@H]2CCN3C(=O)OC[C@@H]3C2)c(-c2cnn(C(F)F)c2)nc1OCCF` [Compound 89], the IC50 in experiment [1] stood at 12.1 nM. The EC50 with HCMV Strain AD169 (setting [2]) is 195 nM; in the experiment on VZV (Human alphaherpesvirus 3, 72 h), 246 nM; with HSV-1 Strain F (Human alphaherpesvirus 1, 72 h), 203 nM.
The like results for `CC1(COc2nc(-c3cnn(C(F)F)c3)c(O[C@H]3CCN4C(=O)OC[C@@H]4C3)cc2C(=O)NCc2ccc(Cl)cc2)COC1` [Compound 90] were, in that order, 9.83 nM, 131 nM, 286 nM and 180 nM.
